Common to all, as to experiment: NCI tumour cell line growth inhibition, 48 h
For assay [1], the system named is COLO 205 colon.
The subject of assay [2] is HCT-15 colon.
Assay [3] deals with MALME-3M melanoma.
In assay [4] the test system is MDA-MB-435.
The subject of assay [5] is OVCAR-5 ovarian.
Assay [6] deals with SNB-19 CNS.
Assay [7] deals with TK-10 renal.
Assay [8] relates to U251 CNS.
Assay [9] concerns UO-31 renal.
For assay [10], the system named is A498 renal.

Molecules are shown by their SMILES. “And” between values parts separate entries of the source, which are not always exact repeats. Equal values may be shown once.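 A five-concentration, 48-hour dose response in 96-well plates underlies each endpoint, interpolated linearly between surrounding concentrations. Here, GI50 denotes the concentration required for 50% inhibition of growth. TGI marks complete inhibition of growth.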

With `COc1cc(/C=C\[N+](=O)[O-])ccc1OCc1ccccc1`, the GI50 was 1.67 µM in [1]; 1.72 µM in [2]; 2.54 µM in [3]; 2.37 µM in assay [4]; 3.29 µM in [5]; 2.64 µM in assay [6]. In addition, the GI50 in assay [7] was 1.93 µM; in assay [8], 1.55 µM; in assay [9], 1.54 µM. Further, the TGI in assay [1] was found to be 3.37 µM; in assay [2], 3.51 µM; in assay [3], 9.38 µM; in assay [4], 10.3 µM; in assay [5], 13.7 µM; in assay [6], 8.41 µM. Besides, the TGI in assay [7] is 5.27 µM; in assay [8], 3.01 µM; in assay [9], 3.06 µM.

On to `CN(C)N1C(=O)c2ccccc2NC1c1ccccc1` (stereo not drawn), for which the TGI in [10], in assay [1], in assay [2], in [3], in [4] and in assay [5] was greater than 100 µM in each case. In addition, the TGI in assay [6], in assay [7], in assay [8] and in assay [9] was greater than 100 µM each time.

For `OCCSCc1ccccc1`, the TGI in [10], in assay [1], in [2], in assay [3], in assay [4] and in assay [5] was greater than 100 µM throughout. Moreover, the TGI in assay [6], in assay [7], in assay [8] and in [9] was greater than 100 µM throughout.

Regarding `C#CC1(O)C(COP(=O)(O)OC2CC(n3cc(F)c(=O)[nH]c3=O)OC2CO)OC(n2ccc(N)nc2=O)C1O` (stereo not drawn), the GI50 in assay [10] was 0.0824 µM; in assay [1], less than 0.01 µM; in assay [2], less than 0.01 µM; in [3], 0.117 µM; in [4], less than 0.0176 µM; in assay [5], 0.154 µM. The GI50 in [6] was less than 0.0205 µM; in assay [7], 0.0273 µM; in assay [8], less than 0.0138 µM; in assay [9], less than 0.0128 µM. Moreover, the TGI is 1.87 µM in assay [10]; 1.61 µM in assay [1]; greater than 38.9 µM in assay [2]; 5.07 µM in assay [3]; 0.545 µM in assay [4]; greater than 33.5 µM in assay [5]. Further, the TGI in assay [6] was greater than 100 µM; in assay [7] it was greater than 42.8 µM; in [8] it was greater than 100 µM.

On to `COc1cc2c3c(c1)c1cc(OC)c(OC)cc1c[n+]3CC2`, for which the GI50 in assay [10] was greater than 100 µM; in assay [1] it was 14.8 µM; in assay [2], greater than 100 µM; in assay [3], 2.71 µM; in [4] it was 44.2 µM; in assay [5], greater than 100 µM. Further, the GI50 is 1.94 µM in [6], greater than 100 µM in assay [7] and 1.28 µM in assay [8]. Besides, the TGI in assay [10] was greater than 100 µM; in assay [1], 50 µM and > 100 µM; in [2] it was greater than 100 µM; in assay [3], 7.93 µM and 13 µM; in assay [4] it was 50 µM and > 100 µM; in assay [5], greater than 100 µM. In addition, the TGI in assay [6] was 50 µM and > 100 µM; in assay [7], greater than 100 µM; in [8], 50 µM and 25.9 µM; in assay [9], greater than 100 µM.

With `O=C(c1ccc2ncc(-c3nc(NC4CC4)ncc3F)n2c1)N1CCOCC1`, the GI50 was 1.63 µM in assay [10]; 2.51 µM in [2]; 3.33 µM in [3]; 3.11 µM in [4]; 2.16 µM in assay [5]; 2.46 µM in [8]. Moreover, the GI50 in [9] was 2.66 µM. Further, the TGI in assay [10] is 3.82 µM; in assay [2], greater than 100 µM; in [3] it was 8.35 µM; in assay [4], 14.4 µM; in assay [5], 8.97 µM; in [8], greater than 100 µM. The compound further yielded a TGI in [9] of 13.6 µM.

In the case of `O=c1nc(Nc2cccc(Cl)c2)oc2cc(Cl)oc(=O)c12`, the GI50 is 10.9 µM in [10]; 10.8 µM in [1]; 5.82 µM in assay [2]; 4.36 µM in [3]; 5.34 µM in assay [4]; 18.5 µM in [5]. Besides, the GI50 in assay [6] is 20 µM; in assay [7] it was 5.11 µM; in [8], 5.08 µM; in [9], 5.46 µM. Further, the TGI in assay [10] was found to be 27.3 µM; in assay [1], 23.7 µM; in [2] it was 28.3 µM; in assay [3] it was 18.8 µM; in [4] it was 20.8 µM; in assay [5], 46.2 µM. Besides, the TGI in assay [6] is greater than 100 µM; in assay [7] it was 24 µM; in assay [8], 20.6 µM; in [9] it was 21.7 µM.

Turning to `CCOc1cc2c(NCCCN(CCO)CCO)ncnc2c(OCC)c1OCC`, the TGI in [10], in [1], in assay [2], in [3], in [4] and in assay [5] was greater than 100 µM each time. In addition, the TGI in assay [6], in assay [7], in [8] and in assay [9] was greater than 100 µM throughout.

`N=C(N=C(N)N)N1CCN(c2ccncc2)CC1`: the GI50 was 155 µM in assay [10]; greater than 1000 µM in [1]; greater than 1000 µM in [2]; greater than 1000 µM in assay [3]; greater than 1000 µM in [4]; greater than 1000 µM in [5]. The GI50 in [6], in [7] and in assay [9] was greater than 1000 µM each time. For the same compound, the TGI in [10], in [1], in [2], in assay [3], in assay [4] and in [5] was greater than 1000 µM throughout. Besides, the TGI in assay [6], in [7] and in assay [9] was greater than 1000 µM in each case.

Values taken from PubChem BioAssay (NCI).
